Assay results: ChEMBL document CHEMBL1150885, “Antibacterial activity of lonchocarpol A” (J Nat Prod, 1998)
Converted amounts (≈) assume the structure as drawn.

Experiments:
Enterococcus faecium [1] = assay: Antibacterial activity against vancomycin-resistant Enterococcus faecium after 24 hrs by broth microtiter susceptibility assay in absence of mouse plasma; assay type: functional
Staphylococcus aureus [2] = assay: Antibacterial activity against methicillin-resistant Staphylococcus aureus after 24 hrs by broth microtiter susceptibility assay in absence of mouse plasma; assay type: functional
Priestia megaterium [3] = assay: Inhibition of RNA synthesis in Bacillus megaterium Mb 410 assessed as [5,6-3H]uracil incorporation by scintillation counting; assay type: functional, organism-based
[4] = tested on: Mycolicibacterium smegmatis; assay: Antibacterial activity against Mycobacterium smegmatis after 24 hrs by broth microtiter susceptibility assay in absence of mouse plasma; assay type: functional
Priestia megaterium [5] = assay: Inhibition of cell wall synthesis in Bacillus megaterium Mb 410 assessed as [2,6-3H]diaminopimelic incorporation by scintillation counting; assay type: functional, organism-based
Priestia megaterium [6] = assay: Inhibition of DNA synthesis in Bacillus megaterium Mb 410 assessed as [6-3H]thymidine incorporation by scintillation counting; assay type: functional, organism-based
[7] = Toxicity in defibrinated sheep RBC assessed as minimum lytic concentration causing hemolysis after 2 hrs by liquid microtiter assay; assay type: cell-based, Ovis aries; settings: erythrocyte
Enterococcus faecium [8] = assay: Antibacterial activity against vancomycin-resistant Enterococcus faecium after 24 hrs by broth microtiter susceptibility assay in presence of mouse plasma; assay type: functional
L1210 [9] = assay: Cytotoxicity against mouse L1210 cells after 24 hrs by trypan blue assay; assay type: functional, cell-based; settings: L1210, 24 h
Priestia megaterium [10] = assay: Antibacterial activity against Bacillus megaterium Mb 410 after 24 hrs by broth microtiter susceptibility assay in absence of mouse plasma; assay type: functional
Staphylococcus aureus [11] = assay: Antibacterial activity against methicillin-resistant Staphylococcus aureus after 24 hrs by broth microtiter susceptibility assay in presence of mouse plasma; assay type: functional
Priestia megaterium [12] = assay: Inhibition of protein synthesis in Bacillus megaterium Mb 410 assessed as L-[4,5-3H]leucine incorporation by scintillation counting; assay type: functional, organism-based
[13] = tested on: Mycolicibacterium smegmatis; assay: Antibacterial activity against Mycobacterium smegmatis after 24 hrs by broth microtiter susceptibility assay in presence of mouse plasma; assay type: functional
L1210 [14] = assay: Cytotoxicity against mouse L1210 cells by MTT assay; assay type: functional, cell-based

Work on `CC(C)=CCc1c(O)c(CC=C(C)C)c2c(c1O)C(=O)C[C@@H](c1ccc(O)cc1)O2` [LONCHOCARPOL A] yielded an MIC (Enterococcus faecium [1]) of 0.78 µg/mL (≈ 1.91 µM), an MIC (Staphylococcus aureus [2]) of 0.78 µg/mL (≈ 1.91 µM) and an IC50 (Priestia megaterium [3]) of 1.9 µg/mL (≈ 4.65 µM). The MIC [4] was > 100 µg/mL, the IC50 (Priestia megaterium [5]) was 1.9 µg/mL (≈ 4.65 µM) and the IC50 (Priestia megaterium [6]) was 3.9 µg/mL (≈ 9.55 µM). For the same compound, the Activity [7] was “>= 100 ug ml-1”, the MIC (Enterococcus faecium [8]) was ≥ 100 µg/mL and the IC50 (L1210 [9]) was 10 µg/mL (≈ 24.5 µM). The MIC (Priestia megaterium [10]) was 1 µg/mL (≈ 2.45 µM), the MIC (Staphylococcus aureus [11]) was ≥ 100 µg/mL and the IC50 (Priestia megaterium [12]) was 2.5 µg/mL (≈ 6.12 µM). The MIC [13] was ≥ 100 µg/mL and the IC50 (L1210 [14]) was > 10 µg/mL.
